Results reported in US12077503B2, “Substituted cyclic amides and their use as herbicides” (FMC CORPORATION, priority 2015, dated 2024).

melting point | Structure (SMILES)
136 to 140 °C | CC(C)=CC1CNC(=O)C1C(=O)Nc1ccccc1F (centres unmarked) [Compound 1011]
98 to 102 °C | C=C(C)c1cccc([C@H]2CN(C)C(=O)[C@@H]2C(=O)Nc2ccc(F)c(F)c2F)c1 [Compound 1087]
